# Data: US12558376B2, “Tissue repair by activated cells” (TECHNION RESEARCH & DEVELOPMENT FOUNDATION LIMITED, priority 2018, dated 2026)
# Columns and labels:
# [1] = system: mesenchymal stem cells (MSCs); test: Cytokine array of MSC conditioned medium (secretome); format: cell-based, human; settings: gemcitabine-activated vs untreated MSCs
# Protocol: Human bone marrow MSCs (LONZA, Switzerland) were cultured in minimum essential medium-alpha (αMEM) supplemented with 10% FBS 1% L-glutamine, 1% sodium-pyruvate, and 1% streptomycin. Medium was replaced every 3 days, and cells were maintained in culture for up to 7 passages.
# After 72 hours, CM was collected.
# The signals corresponding to each factor in the array were quantified by densitometry analysis.
# [2] = system: PANC1 tumors; test: Subcutaneous PANC1 tumors treated with gemcitabine: MSC homing; format: in vivo; settings: PANC1 tumors in SCID mice, gemcitabine 500 mg/kg, after 72 hours; for MSC homing to tumors and proximity to CSCs (immunostaining): vs untreated control
# Protocol: Eight-to-ten-week-old SCID mice were subcutaneously implanted with PANC1 cells (n=5 mice/group). […] Nuclei were stained with DAPI (blue). Red arrows represent CSCs whereas white arrows represent MSCs. Scale bar, 100 μm. FIG. 1B: Right Left side is a graph showing the distance between MSCs and CSCs as was measured and plotted (n>15 fields/group) and FIG. 1B left-right side is a graph showing the percentage of MSCs in tumor single cell suspensions was quantified by flow cytometry. […] After 3 days, the percentage of TICs in culture was assessed by flow cytometry. The use of animals and experimental protocols were approved by the Animal Care and Use Committee of the Technion. Human PANC1 (5×10^6 cells) were subcutaneously injected into the flank of eight-to-ten-week-old CB.17 female SCID mice (Harlan, Israel). Tumor size was assessed regularly with Vernier calipers using the formula width^2×length×0.5. […] Tumors or […] were embedded in […], Japan) and subsequently frozen at -80° C. […] Sections were fixed in cold acetone for 15 minutes. CSCs were stained with PE-conjugated antibodies against human prominin-1 (CD133, 1:250, Macs MiltenyiBiotec). […] Tumor sections were analyzed with a camera attached to an inverted microscope (Leica CTR 6000) using Leica Application suite Version 3.4.0 software or a LSM 700 Zeiss confocal microscope (Zeiss, Germany). Nuclei were stained with DAPI (Electron Microscopy Sciences, PA, USA).
structure (smiles),measurement,setting,value
Nc1ccn([C@@H]2O[C@H](CO)[C@@H](O)C2(F)F)c(=O)n1 [gemcitabine],CXCL10 secretion in conditioned medium of MSCs,[1],highly elevated
same,"recruitment of MSCs to pancreatic tumors (percentage of MSCs, flow cytometry)",[2],massive recruitment of MSCs
same,MSC homing to tumors and proximity to CSCs (immunostaining),[2],MSCs home to tumors and locate in close proximity to CSCs
same,MSC homing to tumors and proximity to CSCs (immunostaining),[2]; listed as Gemcitabine,promotes MSCs homing to tumors
